Measured values: US7812045B2, “Antifungal triazole derivatives” (Daewoong Pharmaceutical Co., Ltd., priority 2005, dated 2010)
≈ marks a conversion by molar mass, not a printed value.

Experiments:
[1] = tested on: Candida glabrata ATCC 34138; assay: In vitro assay for antifungal activity (MIC90); format: cell-based; settings: duplicate; for MIC90 (concentration at which 90% of the fungi were inhibited compared to the negative control): RPMI 1640, growth read after 24 hours; for MIC90: Nakaseomyces glabratus, ATCC34138, RPMI 1640, growth read after 24 hours, read-out: MIC90 (concentration at which 90% of the fungi were inhibited compared to the negative control)
Method: (§1) Fungal strains to be tested were inoculated onto Sabouraud dextrose agar, YM agar, and potato dextrose agar and cultured at 35° C. for two to three days. Individual single colonies of the yeast fungi selected out of the cultured strains were suspended in 5 ml of 0.85% sterile saline, followed by correction to adjust the absorbance thereof at 530 nm to 0.108. The suspensions were diluted serially by 1:50 and then 1:20 in RPMI 1640 media to prepare liquid inocula ranging in cell count from 1.0×10^3 to 5.0×10^3 CFU/ml. As for filamentous fungi, their spores were suspended in 0.85% sterile saline and the suspensions were corrected with sterile saline to show optical transmittance at 530 nm of 80 to 82%. A dilution of 1:50 was made with RPMI 1640 media to prepare liquid inocula having cell counts from […] to 5×10^4 CFU/ml.
(§2) Antifungal samples were prepared by diluting the compounds of the present inventions in RPMI 1640 media to serial concentrations from 0.0625 to 32 μg/ml. As a vehicle, DMSO was contained in a final concentration of 1% (V/V) in the antifungal samples. 0.1 ml of each of the dilutions in series was added to equal volume of each of the fungal inocula.

[2] = tested on: Aspergillus fumigatus ATCC MYA-1163; assay: In vitro assay for antifungal activity (MIC90); format: cell-based; settings: RPMI 1640, growth read after 48 hours, duplicate; for MIC90: read-out: MIC90 (concentration at which 90% of the fungi were inhibited compared to the negative control)
Method: as §1, §2

[3] = tested on: Aspergillus terreus ATCC 28301; assay: In vitro assay for antifungal activity (MIC90); format: cell-based; settings: duplicate; for MIC90 (concentration at which 90% of the fungi were inhibited compared to the negative control): RPMI 1640, growth read after 48 hours; for MIC90: ATCC28301, RPMI 1640, growth read after 48 hours, read-out: MIC90 (concentration at which 90% of the fungi were inhibited compared to the negative control)
Method: as §1, §2

[4] = tested on: Aspergillus flavus ATCC MYA-1004; assay: In vitro assay for antifungal activity (MIC90); format: cell-based; settings: RPMI 1640, growth read after 48 hours, duplicate; for MIC90: read-out: MIC90 (concentration at which 90% of the fungi were inhibited compared to the negative control)
Method: as §1, §2

[5] = tested on: Cryptococcus neoformans ATCC 4065; assay: In vitro assay for antifungal activity (MIC90); format: cell-based; settings: for MIC90 (concentration at which 90% of the fungi were inhibited compared to the negative control): RPMI 1640, duplicate; for MIC90: ATCC4065, RPMI 1640, duplicate, read-out: MIC90 (concentration at which 90% of the fungi were inhibited compared to the negative control)
Method: as §1, §2

[6] = tested on: Candida albicans ATCC 32033; assay: In vitro assay for antifungal activity (MIC90); format: cell-based; settings: duplicate; for MIC90 (concentration at which 90% of the fungi were inhibited compared to the negative control): RPMI 1640, growth read after 24 hours; for MIC90: ATCC32033, RPMI 1640, growth read after 24 hours, read-out: MIC90 (concentration at which 90% of the fungi were inhibited compared to the negative control)
Method: as §1, §2

Candida krusei ATCC 6258 = assay: In vitro assay for antifungal activity (MIC90); format: cell-based; settings: duplicate; for MIC90 (concentration at which 90% of the fungi were inhibited compared to the negative control): RPMI 1640, growth read after 24 hours; for MIC90: Pichia kudriavzevii, ATCC6258, RPMI 1640, growth read after 24 hours, read-out: MIC90 (concentration at which 90% of the fungi were inhibited compared to the negative control)
Method: as §1, §2

[7] = tested on: Aspergillus niger ATCC 9142; assay: In vitro assay for antifungal activity (MIC90); format: cell-based; settings: duplicate; for MIC90 (concentration at which 90% of the fungi were inhibited compared to the negative control): RPMI 1640, growth read after 48 hours; for MIC90: ATCC9142, RPMI 1640, growth read after 48 hours, read-out: MIC90 (concentration at which 90% of the fungi were inhibited compared to the negative control)
Method: as §1, §2

[8] = tested on: Candida albicans (ATCC 36082); assay: In vivo assay for antifungal activity (survival of infected mice); settings: ICR mice infected i.v. with Candida albicans ATCC 36082; 20 mg/kg orally once a day for seven days (day 0 to day 6); groups of 10
Method: Candida albicans (ATCC 36082) was grown in YM broth on a rotary shaker (200 rpm, 26° C.) for about 12 hours to a concentration of 2.5×10^7 CFU/ml and used to infect ICR mice at a dose of 0.2 ml/head via caudal veins. Suspensions or solutions of the azole compounds in a 25% beta-hydroxypropyl methylcellulose base were orally administered at a dose of 20 mg/kg to respective infected ICR mice in groups of 10, the condition and body weights of the mice were monitored, and autopsies were finally conducted. For a negative control, the vehicle alone was used while fluconazole was administered to a positive control. The mice were inoculated once with the fungal preparation on the day of commencement of the administration. The test materials of interest and the positive control material were orally administered to the inoculated mice once a day for seven days from day 0 to day 6, with the first oral administration made five hours after the fungal inoculation (day 0). The periods of time for which the infected mice lived were counted.
The number of mice which survived the fungal infection for 21 days following the inoculation was represented as % survival for each test group, and the results are given in Table 11, below. All members of the negative control were dead 8 days after the fungal infection, while all of the groups administered with Compound 50 were dead 18 days after the fungal infection.

Assay for acute toxicity = format: in vivo; settings: mice; oral administration, to a dose of 1000 mg/kg; observed for two weeks; suspension in 25% beta-hydroxypropyl methylcellulose base or polyethylene glycol 400

SMILES | MIC90 (concentration at which 90% of the fungi were inhibited compared to the negative control) [1] [mg/L] | MIC90 (concentration at which 90% of the fungi were inhibited compared to the negative control) [2] [mg/L] | MIC90 (concentration at which 90% of the fungi were inhibited compared to the negative control) [3] [mg/L] | MIC90 (concentration at which 90% of the fungi were inhibited compared to the negative control) [4] [mg/L] | MIC90 (concentration at which 90% of the fungi were inhibited compared to the negative control) [5] [mg/L] | MIC90 (concentration at which 90% of the fungi were inhibited compared to the negative control) [6] | MIC90 (concentration at which 90% of the fungi were inhibited compared to the negative control) (Candida krusei ATCC 6258) [mg/L] | MIC90 (concentration at which 90% of the fungi were inhibited compared to the negative control) [7] [mg/L] | % Survival on Day 21 [8] [%] | acute toxicity: toxic syndromes observed (Assay for acute toxicity) | MIC90 [1] [mg/L] | MIC90 [2] [mg/L] | MIC90 [3] [mg/L] | MIC90 [4] [mg/L] | MIC90 [5] [mg/L] | MIC90 [6] [mg/L] | MIC90 (Candida krusei ATCC 6258) [mg/L] | MIC90 [7] [mg/L]
C[C@@H](n1cc2cc(F)ccc2n1)[C@](O)(Cn1cncn1)c1ccc(F)cc1F [Example 56] | 2 | 0.5 | 2 | 2 | 0.125 | ≦0.015 μg/ml | 1 | 2 | – | – | – | – | – | – | – | – | – | –
C[C@@H](n1cc2cc(Br)ccc2n1)[C@](O)(Cn1cncn1)c1ccc(F)cc1F [Example 60] | 2 | 0.5 | 1 | 1 | 1 | ≦0.015 μg/ml | 1 | 1 | 10 | no toxic syndromes | – | – | – | – | – | – | – | –
Cc1c2cc(F)ccc2nn1[C@H](C)[C@](O)(Cn1cncn1)c1ccc(F)cc1F [Example 72] | 8 | 4 | 4 | 8 | 1 | 0.031 mg/L | 8 | 8 | – | – | – | – | – | – | – | – | – | –
CCc1c2cc(F)ccc2nn1[C@H](C)[C@](O)(Cn1cncn1)c1ccc(F)cc1F [Example 100] | 8 | 16 | 16 | 16 | 0.25 | ≦0.015 μg/ml | 4 | >16 | – | – | – | – | – | – | – | – | – | –
Cc1nn([C@H](C)[C@](O)(Cn2cncn2)c2ccc(F)cc2F)c2ccc([N+](=O)[O-])cc12 [Example 106, (2R,3R)-2-(2,4-Difluorophenyl)-3-(3-methyl-5-nitro-1H-indazol-1-yl)-1-(1H-1,2,4-triazol-1-yl)butan-2-ol] | – | – | – | – | – | – | – | – | – | – | 8 (≈ 18.7 µM) | 8 (≈ 18.7 µM) | 4 (≈ 9.34 µM) | 8 (≈ 18.7 µM) | 0.5 (≈ 1.17 µM) | 0.031 (≈ 0.0724 µM) | 4 (≈ 9.34 µM) | 16 (≈ 37.3 µM)
C[C@@H](n1ncc2cc([N+](=O)[O-])ccc21)[C@](O)(Cn1cncn1)c1ccc(F)cc1F [Example 234, (2R,3R)-2-(2,4-difluorophenyl)-3-(5-nitro-1H-indazol-1-yl)-1-(1H-1,2,4-triazol-1-yl)butan-2-ol] | – | – | – | – | – | – | – | – | 40 | no toxic syndromes | 4 (≈ 9.65 µM) | 2 (≈ 4.83 µM) | 2 (≈ 4.83 µM) | 1 (≈ 2.41 µM) | 0.125 (≈ 0.302 µM) | ≤ 0.015 | 0.5 (≈ 1.21 µM) | 2 (≈ 4.83 µM)
C[C@@H](n1ncc2cc(NCc3ccc(F)cc3)ccc21)[C@](O)(Cn1cncn1)c1ccc(F)cc1F [Example 244] | 8 | 0.5 | 1 | 0.5 | 0.25 | ≦0.015 μg/ml | 0.5 | 2 | – | – | – | – | – | – | – | – | – | –
C[C@@H](n1ncc2cc(NCc3ccc(OC(F)(F)F)cc3)ccc21)[C@](O)(Cn1cncn1)c1ccc(F)cc1F [Example 247] | 8 | 1 | 2 | 1 | 0.25 | ≦0.015 μg/ml | 0.5 | 4 | – | – | – | – | – | – | – | – | – | –
C[C@@H](n1ncc2cc(NCc3ccc(F)cc3F)ccc21)[C@](O)(Cn1cncn1)c1ccc(F)cc1F [Example 250] | 8 | 1 | 2 | 0.5 | 0.25 | ≦0.015 μg/ml | 0.5 | 4 | – | – | – | – | – | – | – | – | – | –
C[C@@H](n1ncc2cc(NCC3CCCCC3)ccc21)[C@](O)(Cn1cncn1)c1ccc(F)cc1F [Example 309] | 8 | 8 | 4 | 2 | 0.5 | ≦0.015 μg/ml | 1 | 16 | – | – | – | – | – | – | – | – | – | –
OC(Cn1cncn1)(Cn1cncn1)c1ccc(F)cc1F [Fluconazole, fluconazole, reference compound] | – | – | – | – | – | – | – | – | 20 | – | > 32 | > 128 | > 128 | > 128 | 8 (≈ 26.1 µM) | 1 (≈ 3.27 µM) | > 8 | > 128
